The NIST ThermoML archive (doi:10.1021/acs.jced.5b00545)

Settings: Liquid; for vapor or sublimation pressure: Closed cell (Static) method; for mass density / kinematic viscosity: 101.33 kPa; for mass density: Pycnometric method; for kinematic viscosity: Capillary tube (Ostwald / Ubbelohde) method

CCCCCCCCCCCCCCCC(=O)OC [methyl hexadecanoate]
Settings	vapor or sublimation pressure [kPa]
407.12 K	0.13
414.26 K	0.21
418.18 K	0.24
422.34 K	0.27
424.68 K	0.305
427.54 K	0.365
429.32 K	0.415
432.32 K	0.42
434.18 K	0.515
437.3 K	0.545
438.44 K	0.56
439.6 K	0.65
441 K	0.66
445.36 K	0.84
447.06 K	0.85

CCCCCC[C@@H](O)CC=CCCCCCCCC(=O)OC [[R]-methyl 12-hydroxy-9-octadecenoate]
Settings	kinematic viscosity [m2/s]	mass density [kg/m3]	vapor or sublimation pressure [kPa]
293.16 K	–	928.5	–
298.23 K	2.95e-05	–	–
303.13 K	2.35e-05	–	–
303.17 K	–	921.2	–
308.25 K	1.81e-05	–	–
313.15 K	1.49e-05	–	–
313.33 K	–	916.7	–
318.38 K	1.2e-05	–	–
323.05 K	–	910.3	–
323.08 K	1.01e-05	–	–
328.12 K	8.52e-06	–	–
333.15 K	7.25e-06	–	–
333.25 K	–	904	–
338.05 K	6.26e-06	–	–
343.1 K	5.43e-06	–	–
343.32 K	–	895.8	–
348.06 K	4.76e-06	–	–
353.06 K	–	883.3	–
353.11 K	4.2e-06	–	–
358.15 K	3.73e-06	–	–
363.38 K	–	875	–
373.26 K	–	865.8	–
383.23 K	–	857.5	–
451.58 K	–	–	0.232
454.7 K	–	–	0.276
457.23 K	–	–	0.319
459.5 K	–	–	0.361
461.85 K	–	–	0.41
463.55 K	–	–	0.449
465.2 K	–	–	0.49
466.83 K	–	–	0.533
469.55 K	–	–	0.61
470.4 K	–	–	0.637
471.25 K	–	–	0.665
472.3 K	–	–	0.7
473.15 K	–	–	0.73
474.9 K	–	–	0.794
476.8 K	–	–	0.868
